A melting point compilation (Tetko et al.)

melting point [°C]	Structure (SMILES)
175 to 178	O=C(O)c1ccc(F)c(S(=O)(=O)N2CCOCC2)c1
124 to 127	CNCC(O)COc1ccccc1C(F)(F)F (stereo not given)
192 to 194	O=C(Cc1ccccc1)Nc1ccccc1C(=O)O
79 to 81	CN(C)c1nccc(Cl)n1
189 to 191	CCn1c(N)nc2cc(C#N)ccc21
206 to 208	Cc1nn(-c2ccccc2)c(C)c1C(=O)C(=O)O
237 to 239	Cc1nn(-c2ccccn2)c2nc(C3CC3)cc(C(=O)O)c12
105 to 107	CC(C)(C)c1ccc(CCC(=O)O)cc1
140 to 142	Cc1nn(Cc2ccc(F)cc2)c2[nH]nc(N)c12
134 to 138	CON(C)S(=O)(=O)c1cccc(C(=O)O)c1
132 to 134	COc1cc(CCC(=O)O)ccc1Cl
122 to 124	NC(=O)NC(CC(=O)O)c1cccc(Oc2ccccc2)c1 (stereo not given)
204 to 206	Cn1cnnc1-c1ccnc(N)c1
148 to 150	O=C1CN(C2CCCC2)C(=O)N1
36 to 38	O=S(=O)(Cl)c1c(Cl)cccc1C(F)(F)F
79 to 81	CN(C)C(=O)c1cccc([N+](=O)[O-])c1
117 to 119	Nc1cccc(S(=O)(=O)C2CCCC2)c1
137 to 139	O=C(O)Cc1csc(Cc2ccc(F)cc2)n1
135 to 137	CCSc1ccccc1C(=O)O
279 to 281	O=C(O)c1[nH]c2ccc(F)cc2c1Cl
79 to 81	O=C(O)C(Cc1ccccc1)Cc1ccc(Cl)cc1 (stereo not given)
59 to 62	CC(=O)c1ccc(C)c([N+](=O)[O-])c1
193 to 195	O=C(O)C(Cc1ccccc1)N1C(=O)C=CC1=O (stereo not given)
46 to 48	C#CCN1C(=O)C=CC1=O
216 to 218	CS(=O)(=O)c1cc(C(=O)O)ccc1Cl
157 to 159	CCn1c(SCC(=O)O)nnc1-c1cccs1
119 to 121	Nc1cc(N2CCOC2=O)ccc1F
138 to 140	O=C(O)CNC(=O)c1ccccc1Br
106 to 108	C=CC(=O)Nc1cccc(Cl)c1
73 to 75	CC(C)(CO)NCCO

The remaining lines, values behind:

Structure (SMILES)	melting point [°C]
Cc1ccc(S(=O)(=O)Nc2cc(Cl)ccc2C(=O)O)cc1	205 to 207
NNc1nc2ccccc2[nH]1	80 to 82
CNC(c1ccc(Cl)cc1)c1ncccn1 (stereo not given)	67 to 69
O=S(=O)(c1ccc2c(c1)CCCN2)N1CCCCC1	121 to 123
Cc1cc(C=O)c(C)n1-c1ccc(F)cc1	100 to 102
O=C(CCl)NCC1(c2ccccc2)CCC1	95 to 97
CC1CCCCC1Nc1nnc(S)s1 (stereo not given)	133 to 135
COc1cc(S(=O)(=O)Cl)ccc1[N+](=O)[O-]	75 to 77
CCCOc1ccc(C=CC(=O)O)cc1OC	187 to 189
OCC1CSCCN1 (stereo not given)	84 to 86
COC(=O)CN(C)c1ccc(Br)cn1	92 to 94
Nc1ccc(C(=O)CCC(=O)O)cc1	184 to 186
O=C(CCl)NCCOc1ccc2c(c1)OCO2	75 to 77
O=C(CSc1cccs1)Nc1ccc(C(=O)O)cc1	233 to 235
Brc1nn2cc(-c3cccnc3)nc2s1	230 to 232
FC(F)(F)Cc1nc2cc(Br)ccc2[nH]1	139 to 141
OCc1cc(Cl)c2c(c1)OCO2	101 to 105
NC1CCN(c2ccc(C(F)(F)F)cc2)C1 (stereo not given)	60 to 62
N#Cc1ccc2c(c1)CCCC2=O	132 to 134
CCCS(=O)(=O)Nc1cccc(O)c1	101 to 103
CC(=O)c1ccc(N(C)C)cc1	105 to 107
O=C(O)c1ccc(S(=O)(=O)Nc2ccccc2F)cc1	266 to 268
CCCOc1ccc(C=CC(=O)O)cc1OCC	149 to 151
N#Cc1ccc(Oc2ccc(O)cc2)cc1	148 to 150

Structure (SMILES)	melting point [°C]
NNC(=O)Cc1csc(N2CCOCC2)n1	168 to 170
NC(=O)c1ccc(OC(F)F)cc1	130 to 132
CC(C)NS(=O)(=O)c1ccccc1C(=O)O	111 to 113
CCc1ccc(C(=O)N2CCC(C(=O)O)CC2)o1	112 to 114
Cc1nnc2c(Cl)nccn12	212 to 214
O=C(CCCl)Nc1ccccc1[N+](=O)[O-]	86 to 88
CC(C)(C)OC(=O)N1C(=O)NC(C)(C)C1=O	152 to 154
CCc1nc(-c2ccc(C(=O)O)cc2)n[nH]1	229 to 231
O=C(O)CNC(=O)C(F)(F)F	152 to 154
CCOC(=O)Cc1ccc(C(C)=O)cc1	55 to 57
Cc1ccc(C(=O)c2ccc3[nH]c(=O)oc3c2)cc1	206 to 208
CCN(CC)S(=O)(=O)c1ccc(N2CCCC2)c(C(=O)O)c1	141 to 144
O=C(c1ccc(Cl)cc1Cl)N1CCNCC1	108 to 110
OC(CN1CCNCC1)c1ccccc1 (stereo not given)	67 to 69
CN(C(=O)c1ccc(Cl)cc1)c1ccc(O)cc1	205 to 207
Cc1cc(C(=O)CBr)ccc1O	119 to 121
Cc1cc([N+](=O)[O-])cc(C)c1S(=O)(=O)Cl	84 to 86
O=C(O)CC1=NN(c2ncc(C(F)(F)F)cc2Cl)C(=O)C1	173 to 175
COc1ccc2cc(C=O)c(Cl)nc2c1	84 to 86
Nc1ccc(S(=O)(=O)NC2CC2)cn1	169 to 171
Cc1nc(-c2cc(C(=O)O)n(C)c2)cs1	171 to 173
N#CCC(=O)NCCc1ccccc1	91 to 93
CCOc1cc(C=O)ccc1OCc1c(Cl)cccc1Cl	115 to 117
O=C(O)c1ccccc1SCc1ccsc1	213 to 215

Structure (SMILES)	melting point [°C]
O=C(O)c1ccc(N2CCCCC2)c(S(=O)(=O)N2CCCCC2)c1	196 to 198
CC1CCN(Cc2csc(N)n2)CC1	145 to 147
Nc1nc2c(F)cc(F)cc2s1	197 to 199
CCN1C(=O)CC(=O)NC1=O	118 to 120
O=C(O)CCNC(=O)c1cc(F)ccc1Br	112 to 114
CSCc1nc2ccccc2n1CC(=O)O	221 to 225
Cc1cccn2cc(CC(N)=S)nc12	153 to 155
COC(=O)c1cccc(CS(=O)(=O)Cl)c1	102 to 104
O=C1CC(c2cccnc2)CN1 (stereo not given)	69 to 71
CNS(=O)(=O)c1cccc(F)c1	58 to 60
Cc1ccc(S(=O)(=O)NC(CCl)c2ccccc2)cc1 (stereo not given)	174 to 176
COCCOc1ccc(C#N)cn1	39 to 41
Nc1ccc(C(=O)N2CC(=O)Nc3ccccc32)cc1	286 to 288
Cc1nc(Cc2ccccn2)sc1C(=O)O	189 to 191
O=C(O)c1cccc(S(=O)(=O)CC(F)(F)F)c1	192 to 194
O=C(O)c1cnn(C2CCCCC2)c1	197 to 199
COC(=O)c1c(-c2ccccc2Cl)csc1N	92 to 96
Cn1c(O)c([N+](=O)[O-])c(=O)c2ccccc21	159 to 161
CC(C)c1ccc(-c2nn(-c3ccccc3)cc2C(=O)O)cc1	222 to 224
CN(C)c1ccc(C#N)c(F)c1	56 to 58
Nc1cc(C(F)(F)F)ccc1N1CC(C(F)(F)F)OC1=O (stereo not given)	99 to 101
Cc1ccc(NC(N)=O)c(C)c1	215 to 217
